We go through 27 compounds from patent US9371320B2, “Heterocyclic compound” (TAKEDA PHARMACEUTICAL COMPANY LIMITED, priority 2012, dated 2016).

One test deals with T1, JAK1 (Homo sapiens, UniProt P23458).
T1 construct: purchased Invitrogen
The test is described as follows: JAK1 enzyme inhibition test (LANCE method). It is filed as biochemical. The note with it: for inhibition at 1 µM: test compound 1 μM, read-out: Inhibitory rate (%) JAK1 1 μM; for inhibition at 10 µM: test compound 10 μM (Ex. 182-220), beside Tyk2 1 μM, read-out: Inhibitory rate (%) JAK1 10 μM. The essentials: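 TR-FRET (LANCE) kinase assay using JAK1 at 187.5 ng/mL, ULight-JAK1 peptide at 300 nM and ATP at 150 μM, given as solution concentrations before mixing. Buffer was 50 mM HEPES pH 7.5 with 10 mM MgCl2 and 2 mM DTT, and the reaction ran 1 h at room temperature. Eu anti-phosphotyrosine signal at 665 nm was expressed relative to a no-enzyme well, taken as 100% inhibition.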
(Time-resolved FRET reads energy transfer from a long-lived donor to a nearby acceptor.)

In the next test the target is T2, Tyk2 (Homo sapiens, UniProt P29597).
T2 construct: purchased Invitrogen
T2 sequence (P29597 whole entry): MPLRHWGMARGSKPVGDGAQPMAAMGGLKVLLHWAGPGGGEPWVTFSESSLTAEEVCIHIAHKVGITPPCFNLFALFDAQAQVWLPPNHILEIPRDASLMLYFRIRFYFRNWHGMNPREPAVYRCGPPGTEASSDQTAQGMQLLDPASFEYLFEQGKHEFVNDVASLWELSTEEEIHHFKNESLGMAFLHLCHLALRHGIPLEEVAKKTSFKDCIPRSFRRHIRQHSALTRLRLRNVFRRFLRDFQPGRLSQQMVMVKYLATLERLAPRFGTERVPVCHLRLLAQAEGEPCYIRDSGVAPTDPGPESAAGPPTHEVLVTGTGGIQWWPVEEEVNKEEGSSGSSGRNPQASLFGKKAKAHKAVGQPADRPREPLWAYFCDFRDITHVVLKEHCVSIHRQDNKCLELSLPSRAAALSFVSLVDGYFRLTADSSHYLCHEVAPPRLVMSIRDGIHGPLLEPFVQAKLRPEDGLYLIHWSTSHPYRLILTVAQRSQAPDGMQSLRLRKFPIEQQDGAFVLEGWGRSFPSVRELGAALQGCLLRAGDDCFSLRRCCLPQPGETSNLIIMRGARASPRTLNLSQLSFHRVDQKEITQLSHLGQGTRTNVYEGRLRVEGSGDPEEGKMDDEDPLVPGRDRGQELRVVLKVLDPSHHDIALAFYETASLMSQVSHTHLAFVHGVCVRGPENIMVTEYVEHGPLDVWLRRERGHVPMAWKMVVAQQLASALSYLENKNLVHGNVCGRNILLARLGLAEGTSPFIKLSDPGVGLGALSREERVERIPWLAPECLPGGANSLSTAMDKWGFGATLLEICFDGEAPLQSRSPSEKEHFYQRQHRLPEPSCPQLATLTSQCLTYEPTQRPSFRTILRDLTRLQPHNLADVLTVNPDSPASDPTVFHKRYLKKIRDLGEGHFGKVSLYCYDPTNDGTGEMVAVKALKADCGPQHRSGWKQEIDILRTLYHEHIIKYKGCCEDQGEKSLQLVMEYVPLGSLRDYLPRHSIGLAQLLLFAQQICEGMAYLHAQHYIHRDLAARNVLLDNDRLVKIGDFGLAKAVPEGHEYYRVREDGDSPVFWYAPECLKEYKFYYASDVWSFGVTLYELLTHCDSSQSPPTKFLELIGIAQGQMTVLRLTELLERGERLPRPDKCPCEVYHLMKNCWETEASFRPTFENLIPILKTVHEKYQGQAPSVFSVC
Briefly: Tyk2 enzyme inhibition test (LANCE method). It counts as biochemical. The note with it: test compound 1 μM; read-out: Inhibitory rate (%) Tyk2 1 μM. The essentials: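 Recombinant Tyk2 (375 ng/mL stock) with ULight-JAK1 peptide (300 nM stock) and ATP (30 μM stock) in HEPES pH 7.5/MgCl2/EGTA/DTT buffer, 1 h at room temperature. Stopped with EDTA plus Eu-anti-phosphotyrosine antibody; TR-FRET read at 665 nm after 1 h. No-enzyme wells define 100% inhibition.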

Molecules are shown by their SMILES.

T1 sequence (P23458 whole entry): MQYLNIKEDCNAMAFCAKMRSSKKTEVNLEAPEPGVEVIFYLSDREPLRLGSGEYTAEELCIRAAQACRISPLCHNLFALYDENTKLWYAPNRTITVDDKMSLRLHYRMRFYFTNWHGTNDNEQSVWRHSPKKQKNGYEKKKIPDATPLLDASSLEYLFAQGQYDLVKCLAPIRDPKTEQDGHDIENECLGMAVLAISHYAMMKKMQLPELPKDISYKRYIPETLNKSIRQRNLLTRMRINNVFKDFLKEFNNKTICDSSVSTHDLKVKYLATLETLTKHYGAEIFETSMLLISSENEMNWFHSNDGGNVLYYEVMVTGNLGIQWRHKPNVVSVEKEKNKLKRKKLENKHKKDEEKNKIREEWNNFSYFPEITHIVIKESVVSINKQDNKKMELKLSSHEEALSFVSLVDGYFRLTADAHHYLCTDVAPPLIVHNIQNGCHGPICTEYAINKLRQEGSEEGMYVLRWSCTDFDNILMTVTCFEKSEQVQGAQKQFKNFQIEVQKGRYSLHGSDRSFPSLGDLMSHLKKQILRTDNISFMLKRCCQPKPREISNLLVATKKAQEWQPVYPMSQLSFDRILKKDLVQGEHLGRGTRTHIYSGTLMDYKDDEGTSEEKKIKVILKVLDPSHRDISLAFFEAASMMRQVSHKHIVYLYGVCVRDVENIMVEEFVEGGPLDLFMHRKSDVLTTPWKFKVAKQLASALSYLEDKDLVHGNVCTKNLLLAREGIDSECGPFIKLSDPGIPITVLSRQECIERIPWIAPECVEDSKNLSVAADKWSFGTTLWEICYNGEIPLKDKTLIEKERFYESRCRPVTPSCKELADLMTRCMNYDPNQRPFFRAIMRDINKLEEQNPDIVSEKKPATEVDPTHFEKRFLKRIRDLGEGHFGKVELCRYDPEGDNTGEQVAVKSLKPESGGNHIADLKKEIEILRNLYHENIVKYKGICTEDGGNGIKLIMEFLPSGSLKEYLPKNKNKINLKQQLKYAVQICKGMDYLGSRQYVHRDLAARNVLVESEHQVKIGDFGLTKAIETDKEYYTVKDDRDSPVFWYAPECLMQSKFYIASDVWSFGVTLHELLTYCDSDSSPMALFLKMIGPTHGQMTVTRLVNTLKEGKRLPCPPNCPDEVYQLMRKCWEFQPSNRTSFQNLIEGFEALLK

As to `CNC(=O)COc1ccc(-c2nn(-c3c(F)cccc3F)c3c(Cl)c[nH]c(=O)c23)cc1` [Example 221, 2-(4-(7-chloro-1-(2,6-difluorophenyl)-4-oxo-4,5-dihydro-1H-pyrazolo[4,3-c]pyridin-3-yl)phenoxy)-N-methylacetamide], the inhibition at 1 µM on JAK1 came out at 80%; at Tyk2 it was 99%.
Taken in the same sequence, the figures for `N#CCc1ccc(-c2nn(-c3c(F)cccc3F)c3c(Cl)c[nH]c(=O)c23)cc1` [Example 116, (4-(7-chloro-1-(2,6-difluorophenyl)-4-oxo-4,5-dihydro-1H-pyrazolo[4,3-c]pyridin-3-yl)phenyl)acetonitrile] were 89% and 99%.
Taken in the same sequence, the figures for `COC(=O)c1ccc(-c2nn(-c3c(F)cccc3F)c3cc[nH]c(=O)c23)cc1` [Example 260, methyl 4-(1-(2,6-difluorophenyl)-4-oxo-4,5-dihydro-1H-pyrazolo[4,3-c]pyridin-3-yl)benzoate] were 77% and 94%.
Turning to `O=C1CCCN1Cc1ccc(-c2nn(-c3c(F)cccc3F)c3cc[nH]c(=O)c23)cc1` [Example 275, 1-(2,6-difluorophenyl)-3-(4-((2-oxopyrrolidin-1-yl)methyl)phenyl)-1,5-dihydro-4H-pyrazolo[4,3-c]pyridin-4-one], the inhibition at 1 µM is 96% on JAK1 and 98% at Tyk2.
Consider `NS(=O)(=O)c1ccc(-c2nn(C3CCC(=O)CC3)c3cc[nH]c(=O)c23)cc1` [Example 173, 4-(4-oxo-1-(4-oxocyclohexyl)-4,5-dihydro-1H-pyrazolo[4,3-c]pyridin-3-yl)benzenesulfonamide], for which the inhibition at 1 µM on JAK1 worked out at 99%; at Tyk2, 96%.
With `O=C(O)c1cc(-c2nn(-c3c(F)cccc3F)c3cc[nH]c(=O)c23)cs1` [Example 37, 4-(1-(2,6-difluorophenyl)-4-oxo-4,5-dihydro-1H-pyrazolo[4,3-c]pyridin-3-yl)thiophene-2-carboxylic acid], the inhibition at 1 µM on JAK1 and at Tyk2 was 99% throughout.
With `COc1ccc(Cn2nc(-c3ccc(S(N)(=O)=O)cc3)c3c(=O)[nH]ccc32)cc1` [Example 94, 4-(1-(4-methoxybenzyl)-4-oxo-4,5-dihydro-1H-pyrazolo[4,3-c]pyridin-3-yl)benzenesulfonamide], the figures for the inhibition at 1 µM at JAK1 and at Tyk2 were 80% and 78%, respectively.
Taken in the same sequence, the figures for `N#CC1(NC(=O)c2cc(-c3nn(-c4c(F)cccc4F)c4c(Cl)c[nH]c(=O)c34)cs2)CC1` [Example 163, 4-(7-chloro-1-(2,6-difluorophenyl)-4-oxo-4,5-dihydro-1H-pyrazolo[4,3-c]pyridin-3-yl)-N-(1-cyanocyclopropyl)thiophene-2-carboxamide] were 98% and 100%.
Turning to `NC(=O)c1cc(-c2nn(C3CCOCC3)c3cc[nH]c(=O)c23)cs1` [Example 27, 4-(4-oxo-1-(tetrahydro-2H-pyran-4-yl)-4,5-dihydro-1H-pyrazolo[4,3-c]pyridin-3-yl)thiophene-2-carboxamide], the inhibition at 1 µM at JAK1 and on Tyk2 was 98% throughout.
For the compound `NC(=O)c1cc(-c2cn(C3CCCC3)c3c(CO)c[nH]c(=O)c23)cs1` [Example 40, 4-(1-cyclopentyl-7-(hydroxymethyl)-4-oxo-4,5-dihydro-1H-pyrrolo[3,2-c]pyridin-3-yl)thiophene-2-carboxamide], the inhibition at 1 µM on JAK1 and at Tyk2 was 78% in each case.
Turning to `CC(C)(C(N)=O)c1ccc(-c2nn(-c3c(F)cccc3F)c3c(Cl)c[nH]c(=O)c23)cc1` [Example 188, 2-(4-(7-chloro-1-(2,6-difluorophenyl)-4-oxo-4,5-dihydro-1H-pyrazolo[4,3-c]pyridin-3-yl)phenyl)-2-methylpropanamide], at JAK1, the inhibition at 10 µM is 84%. Further, the inhibition at 1 µM on Tyk2 came out at 100%.
For the compound `CC[C@H](COC)n1nc(-c2csc(C(N)=O)c2)c2c(=O)[nH]ccc21` [Example 263, 4-(1-((2R)-1-methoxybutan-2-yl)-4-oxo-4,5-dihydro-1H-pyrazolo[4,3-c]pyridin-3-yl)thiophene-2-carboxamide], the inhibition at 1 µM at JAK1 turned out to be 97%; at Tyk2, 90%.
Taken in the same sequence, the figures for `NC(=O)c1cccc(-c2nn(C3CCCC3)c3cc[nH]c(=O)c23)c1` [Example 143, 3-(1-cyclopentyl-4-oxo-4,5-dihydro-1H-pyrazolo[4,3-c]pyridin-3-yl)benzamide] were 93% and 92%.
Taken in the same sequence, the figures for `NS(=O)(=O)c1ccc(-c2nn(C3CCOCC3)c3cc[nH]c(=O)c23)cc1` [Example 15, 4-(4-oxo-1-(tetrahydro-2H-pyran-4-yl)-4,5-dihydro-1H-pyrazolo[4,3-c]pyridin-3-yl)benzenesulfonamide] were 99% and 97%.
Consider `O=c1[nH]ccc2c1c(-c1cccc(CO)c1)nn2-c1c(F)cccc1F` [Example 278, 1-(2,6-difluorophenyl)-3-(3-(hydroxymethyl)phenyl)-1,5-dihydro-4H-pyrazolo[4,3-c]pyridin-4-one-], for which the inhibition at 1 µM amounted to 92% at JAK1 and 98% on Tyk2.
For `Cn1cc(-c2nn(-c3c(F)cccc3F)c3c(Cl)c[nH]c(=O)c23)cn1` [Example 189, 7-chloro-1-(2,6-difluorophenyl)-3-(1-methyl-1H-pyrazoI-4-yl)-1,5-dihydro-4H-pyrazolo[4,3-c]pyridin-4-one], the inhibition at 10 µM on JAK1 amounted to 92%. In addition, on Tyk2, the inhibition at 1 µM stood at 100%.
As for `CN(C)Cc1cccc(-c2nn(-c3c(F)cccc3F)c3cc[nH]c(=O)c23)c1` [Example 258, 1-(2,6-difluorophenyl)-3-(3-((dimethylamino)methyl)phenyl)-1,5-dihydro-4H-pyrazolo[4,3-c]pyridin-4-one], the figures for the inhibition at 1 µM on JAK1 and at Tyk2 were 43% and 88%, respectively.
Take `NS(=O)(=O)c1ccc(-c2nn(-c3ccccc3F)c3cc[nH]c(=O)c23)cc1` [Example 213, 4-(1-(2-fluorophenyl)-4-oxo-4,5-dihydro-1H-pyrazolo[4,3-c]pyridin-3-yl)benzenesulfonamide]: at JAK1, the inhibition at 10 µM stood at 98%. Also, the inhibition at 1 µM on Tyk2 worked out at 99%.
Turning to `Cn1cc(-c2cn(C3CCCC3)c3c(C#N)c[nH]c(=O)c23)cn1` [Example 131, 1-cyclopentyl-3-(1-methyl-1H-pyrazol-4-yl)-4-oxo-4,5-dihydro-1H-pyrrolo[3,2-c]pyridine-7-carbonitrile], the values for the inhibition at 1 µM on JAK1 and at Tyk2 were 97% and 99%, respectively.
For `COc1ccc(-c2nn(C3CCCC3)c3cc[nH]c(=O)c23)cc1` [Example 46, 1-cyclopentyl-3-(4-methoxyphenyl)-1,5-dihydro-4H-pyrazolo[4,3-c]pyridin-4-one], the inhibition at 1 µM came out at 91% at JAK1 and 95% at Tyk2.
Taken in the same sequence, the figures for `N#CCc1cccc(-c2cn(C3CCCC3)c3c(C#N)c[nH]c(=O)c23)c1` [Example 109, 3-(3-(cyanomethyl)phenyl)-1-cyclopentyl-4-oxo-4,5-dihydro-1H-pyrrolo[3,2-c]pyridine-7-carbonitrile] were 61% and 94%.
With `NS(=O)(=O)c1ccc(-c2nn(C3CCCC3)c3c(Br)c[nH]c(=O)c23)cc1` [Example 101, 4-(7-bromo-1-cyclopentyl-4-oxo-4,5-dihydro-1H-pyrazolo[4,3-c]pyridin-3-yl)benzenesulfonamide], the figures for the inhibition at 1 µM on JAK1 and on Tyk2 were 80% and 91%, respectively.
Taken in the same sequence, the figures for `O=c1[nH]ccc2c1c(-c1ccc(N3CCOCC3)nc1)nn2-c1c(F)cccc1F` [Example 309, 1-(2,6-difluorophenyl)-3-(6-(morpholin-4-yl)pyridin-3-yl)-1,5-dihydro-4H-pyrazolo[4,3-c]pyridin-4-one] were 93% and 99%.
As for `NC(=O)Cc1ccc(-c2nn(-c3c(F)cccc3F)c3c(Br)c[nH]c(=O)c23)cc1` [Example 112, 2-(4-(7-bromo-1-(2,6-difluorophenyl)-4-oxo-4,5-dihydro-1H-pyrazolo[4,3-c]pyridin-3-yl)phenyl)acetamide], the inhibition at 1 µM on JAK1 was 89%; at Tyk2, 98%.
Taken in the same sequence, the figures for `COC(=O)c1c[nH]c(=O)c2c(-c3csc(-c4noc(=O)[nH]4)c3)cn(C3CCCC3)c12` [Example 74, methyl 1-cyclopentyl-4-oxo-3-(5-(5-oxo-4,5-dihydro-1,2,4-oxadiazol-3-yl)-3-thienyl)-4,5-dihydro-1H-pyrrolo[3,2-c]pyridine-7-carboxylate] were 44% and 85%.
Turning to `N#Cc1c[nH]c(=O)c2c(-c3cccc(N4CCOCC4)c3)cn(C3CCCC3)c12` [Example 140, 1-cyclopentyl-3-(3-(morpholin-4-yl)phenyl)-4-oxo-4,5-dihydro-1H-pyrrolo[3,2-c]pyridine-7-carbonitrile], the inhibition at 1 µM at JAK1 was found to be 17%; at Tyk2, 91%.
On to `Cn1cc(-c2nn(-c3c(F)cccc3F)c3cc[nH]c(=O)c23)ccc1=O` [Example 238, 1-(2,6-difluorophenyl)-3-(1-methyl-6-oxo-1,6-dihydropyridin-3-yl)-1,5-dihydro-4H-pyrazolo[4,3-c]pyridin-4-one], for which the inhibition at 1 µM came to 72% at JAK1 and 91% at Tyk2.
